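Where inhibition never reached the appropriate level, the endpoint shown equals the highest concentration tested. Otherwise, values were interpolated linearly from a five-concentration, 48-hour dose response in 96-well plates. GI50: concentration for 50% inhibition of growth.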 Active and inactive are the calls of the source. Rule as the data show it: active = GI50 up to about 1.1 µM and inactive = higher.
Key:
Assay in all cases: DTP human tumour cell line panel, 48 h
NCI/ADR-RES = tested on: NCI/ADR-RES
SF-268 = tested on: SF-268
SK-MEL-2 = tested on: SK-MEL-2
ACHN = tested on: ACHN
SN12C = tested on: SN12C
A549 = tested on: A549
K562 = tested on: K562
HT-29 = tested on: HT-29
T47D = tested on: T47D
OVCAR-5 = tested on: OVCAR-5
NCI-H460 = tested on: NCI-H460
RXF 393 = tested on: RXF 393
SK-OV-3 = tested on: SK-OV-3
MCF7 = tested on: MCF7
UACC-62 = tested on: UACC-62
SW-620 = tested on: SW-620
NCI-H23 = tested on: NCI-H23
M14 = tested on: M14
RPMI-8226 = tested on: RPMI-8226
IGROV-1 = tested on: IGROV-1
MDA-MB-435 = tested on: MDA-MB-435
Malme-3M = tested on: Malme-3M
HOP-62 = tested on: HOP-62
DU-145 = tested on: DU-145
SK-MEL-28 = tested on: SK-MEL-28
HCT-15 = tested on: HCT-15
U-251 = tested on: U-251
KM12 = tested on: KM12
A498 = tested on: A498
CAKI-1 = tested on: CAKI-1
786-0 = tested on: 786-0
MOLT-4 = tested on: MOLT-4
CCRF-CEM = tested on: CCRF-CEM
NCI-H226 = tested on: NCI-H226
HCC 2998 = tested on: HCC 2998
MDA-MB-231 = tested on: MDA-MB-231
OVCAR-8 = tested on: OVCAR-8
SF-295 = tested on: SF-295
SR = tested on: SR
HCT-116 = tested on: HCT-116
PC-3 = tested on: PC-3
UACC-257 = tested on: UACC-257
SNB-19 = tested on: SNB-19
HL-60 = tested on: HL-60
OVCAR-4 = tested on: OVCAR-4
LOX IMVI = tested on: LOX IMVI
Hs-578T = tested on: Hs-578T
EKVX = tested on: EKVX
SNB-75 = tested on: SNB-75
UO-31 = tested on: UO-31
NCI-H522 = tested on: NCI-H522
COLO 205 = tested on: COLO 205
SK-MEL-5 = tested on: SK-MEL-5
OVCAR-3 = tested on: OVCAR-3
TK-10 = tested on: TK-10
MDA-N = tested on: MDA-N
SF-539 = tested on: SF-539
HOP-92 = tested on: HOP-92

O=C(NNc1nc(-c2ccccc2)cs1)C(F)(F)F
GI50 (NCI/ADR-RES): 29.9 µM (inactive)
GI50 (SF-268): 29.6 µM (inactive)
GI50 (SK-MEL-2): 36.3 µM (inactive)
GI50 (ACHN): 29.2 µM (inactive)
GI50 (SN12C): 75.7 µM (inactive)
GI50 (A549): 39.2 µM (inactive)
GI50 (K562): 25 µM (inactive)
GI50 (HT-29): 47.2 µM (inactive)
GI50 (T47D): 23.9 µM (inactive)
GI50 (OVCAR-5): > 100 µM (inactive)
GI50 (NCI-H460): 63.5 µM (inactive)
GI50 (RXF 393): 75 µM (inactive)
GI50 (SK-OV-3): 61.1 µM (inactive)
GI50 (MCF7): > 100 µM (inactive)
GI50 (UACC-62): 58.7 µM (inactive)
GI50 (SW-620): 34.4 µM (inactive)
GI50 (NCI-H23): 34 µM (inactive)
GI50 (M14): 57.1 µM (inactive)
GI50 (RPMI-8226): 16.4 µM (inactive)
GI50 (IGROV-1): 20.2 µM (inactive)
GI50 (MDA-MB-435): 34 µM (inactive)
GI50 (Malme-3M): 53.7 µM (inactive)
GI50 (HOP-62): 33.2 µM (inactive)
GI50 (DU-145): 53.1 µM (inactive)
GI50 (SK-MEL-28): 25.8 µM (inactive)
GI50 (HCT-15): 57.3 µM
GI50 (U-251): 26.3 µM (inactive)
GI50 (KM12): 30.1 µM (inactive)
GI50 (A498): 37.1 µM (inactive)
GI50 (CAKI-1): 45.8 µM (inactive)
GI50 (786-0): > 100 µM (inactive)
GI50 (MOLT-4): 20 µM (inactive)
GI50 (CCRF-CEM): 24.9 µM (inactive)
GI50 (NCI-H226): 20.5 µM (inactive)
GI50 (HCC 2998): 95.1 µM (inactive)
GI50 (MDA-MB-231): 68.7 µM (inactive)
GI50 (OVCAR-8): 33.4 µM (inactive)
GI50 (SF-295): 29.5 µM (inactive)
GI50 (SR): 33.4 µM (inactive)
GI50 (HCT-116): 47.3 µM (inactive)
GI50 (PC-3): 37.8 µM (inactive)
GI50 (UACC-257): 44.3 µM (inactive)
GI50 (SNB-19): 63.8 µM (inactive)
GI50 (HL-60): 33.1 µM (inactive)
GI50 (OVCAR-4): > 100 µM (inactive)
GI50 (LOX IMVI): 57.7 µM (inactive)
GI50 (Hs-578T): 15.9 µM (inactive)
GI50 (EKVX): 98.9 µM (inactive)
GI50 (SNB-75): 19 µM (inactive)
GI50 (UO-31): 3.3 µM (inactive)
GI50 (NCI-H522): 35.7 µM (inactive)
GI50 (COLO 205): 35.8 µM (inactive)
GI50 (SK-MEL-5): 35.3 µM (inactive)

O=c1c2ccccc2n2c(-c3ccc(O)cc3)nnc2n1-c1ccccc1
GI50 (NCI/ADR-RES): 21.5 µM (inactive)
GI50 (SF-268): 21.8 µM (inactive)
GI50 (OVCAR-3): 18.2 µM (inactive)
GI50 (SK-MEL-2): 20.7 µM (inactive)
GI50 (ACHN): 16.1 µM (inactive)
GI50 (SN12C): 17.1 µM (inactive)
GI50 (A549): 20.5 µM (inactive)
GI50 (K562): 13.4 µM (inactive)
GI50 (HT-29): 22.1 µM (inactive)
GI50 (T47D): 13.4 µM (inactive)
GI50 (OVCAR-5): 96.6 µM (inactive)
GI50 (NCI-H460): 17.8 µM (inactive)
GI50 (RXF 393): 20.5 µM (inactive)
GI50 (SK-OV-3): 20.6 µM (inactive)
GI50 (UACC-62): 19.6 µM (inactive)
GI50 (SW-620): 13.5 µM (inactive)
GI50 (NCI-H23): 20.3 µM (inactive)
GI50 (TK-10): 26.5 µM (inactive)
GI50 (M14): 18.2 µM (inactive)
GI50 (IGROV-1): 18.1 µM (inactive)
GI50 (MDA-MB-435): 18.5 µM (inactive)
GI50 (Malme-3M): 21.5 µM (inactive)
GI50 (HOP-62): 20.4 µM (inactive)
GI50 (DU-145): 21.9 µM (inactive)
GI50 (SK-MEL-28): 24.3 µM (inactive)
GI50 (HCT-15): 23.1 µM
GI50 (U-251): 17.2 µM (inactive)
GI50 (KM12): 49.2 µM (inactive)
GI50 (A498): 13 µM (inactive)
GI50 (CAKI-1): 29.6 µM (inactive)
GI50 (786-0): 17.9 µM (inactive)
GI50 (MOLT-4): 36.1 µM (inactive)
GI50 (MDA-N): 15.7 µM (inactive)
GI50 (CCRF-CEM): 14.8 µM (inactive)
GI50 (NCI-H226): 27 µM (inactive)
GI50 (HCC 2998): 49.1 µM (inactive)
GI50 (MDA-MB-231): 17.1 µM (inactive)
GI50 (OVCAR-8): 30.8 µM (inactive)
GI50 (SF-539): 18 µM (inactive)
GI50 (HOP-92): 23.3 µM (inactive)
GI50 (SF-295): 15.6 µM (inactive)
GI50 (SR): 21.3 µM (inactive)
GI50 (HCT-116): 20.9 µM (inactive)
GI50 (PC-3): 17.9 µM (inactive)
GI50 (UACC-257): 21.5 µM (inactive)
GI50 (SNB-19): 20.4 µM (inactive)
GI50 (HL-60): 62.8 µM (inactive)
GI50 (OVCAR-4): 20 µM (inactive)
GI50 (LOX IMVI): 29.4 µM (inactive)
GI50 (EKVX): 17 µM (inactive)
GI50 (SNB-75): 18.7 µM (inactive)
GI50 (UO-31): 3.72 µM (inactive)
GI50 (NCI-H522): 18.2 µM (inactive)
GI50 (COLO 205): 77.6 µM (inactive)
GI50 (SK-MEL-5): 18.5 µM (inactive)

O=C(CC(C(=O)c1ccsc1)c1ccsc1)c1ccsc1 (stereo not drawn)
GI50 (NCI/ADR-RES): 32.1 µM (inactive)
GI50 (SF-268): > 100 µM (inactive)
GI50 (SK-MEL-2): > 100 µM (inactive)
GI50 (ACHN): > 100 µM (inactive)
GI50 (SN12C): > 100 µM (inactive)
GI50 (A549): 68.5 µM (inactive)
GI50 (K562): 54.6 µM (inactive)
GI50 (HT-29): 77.6 µM (inactive)
GI50 (T47D): 25.5 µM (inactive)
GI50 (NCI-H460): 60 µM (inactive)
GI50 (SK-OV-3): 59.4 µM (inactive)
GI50 (MCF7): 70.6 µM (inactive)
GI50 (UACC-62): 74.8 µM (inactive)
GI50 (SW-620): > 100 µM (inactive)
GI50 (NCI-H23): 46.1 µM (inactive)
GI50 (TK-10): > 100 µM (inactive)
GI50 (M14): 50.2 µM (inactive)
GI50 (RPMI-8226): 33.5 µM (inactive)
GI50 (IGROV-1): > 100 µM (inactive)
GI50 (MDA-MB-435): 44.6 µM (inactive)
GI50 (Malme-3M): > 100 µM (inactive)
GI50 (HOP-62): > 100 µM (inactive)
GI50 (DU-145): > 100 µM (inactive)
GI50 (SK-MEL-28): 82.8 µM (inactive)
GI50 (HCT-15): 61.4 µM
GI50 (U-251): > 100 µM (inactive)
GI50 (KM12): 42.7 µM (inactive)
GI50 (A498): > 100 µM (inactive)
GI50 (CAKI-1): > 100 µM (inactive)
GI50 (786-0): > 100 µM (inactive)
GI50 (MOLT-4): 35.6 µM (inactive)
GI50 (CCRF-CEM): 43.1 µM (inactive)
GI50 (NCI-H226): > 100 µM (inactive)
GI50 (HCC 2998): > 100 µM (inactive)
GI50 (MDA-MB-231): > 100 µM (inactive)
GI50 (OVCAR-8): > 100 µM (inactive)
GI50 (SF-539): > 100 µM (inactive)
GI50 (SF-295): 73.6 µM (inactive)
GI50 (SR): 36.5 µM (inactive)
GI50 (HCT-116): 43.4 µM (inactive)
GI50 (PC-3): 44 µM (inactive)
GI50 (UACC-257): 58.2 µM (inactive)
GI50 (SNB-19): > 100 µM (inactive)
GI50 (HL-60): 35.2 µM (inactive)
GI50 (OVCAR-4): 62.1 µM (inactive)
GI50 (LOX IMVI): 79.8 µM (inactive)
GI50 (Hs-578T): > 100 µM (inactive)
GI50 (EKVX): 75.2 µM (inactive)
GI50 (SNB-75): 56.5 µM (inactive)
GI50 (UO-31): 39.4 µM (inactive)
GI50 (COLO 205): > 100 µM (inactive)
GI50 (SK-MEL-5): 43.5 µM (inactive)

COC(C)(C)[C@@H](O)[C@H](O)C[C@H](C)C1=C2CC[C@@H]3[C@@]4(C)CC[C@@H](OC(C)=O)C(C)(C)[C@@H]4C[C@@H](OC4OC(COC(C)=O)C(O)C(O)C4O)[C@@]3(C)[C@]2(C)CC1 (stereo partly drawn)
GI50 (SK-OV-3): 15.3 µM (inactive)
GI50 (U-251): 10.7 µM (inactive)
GI50 (SNB-75): 8.79 µM (inactive)
